This note sets out measurements from patent publication US20250100994A1, “CDK12/13 COVALENT INHIBITORS OR PHARMACEUTICAL COMPOSITION THEREOF, AND USES THEREOF” (The Regents of the University of Michigan, priority 2023, published 2025).

Each structure is given as a SMILES string.

Assay [1] has as its system VCaP cell. Briefly: VCaP cell proliferation, CellTiter-Glo Luminescent Cell Viability Assay. The assay is classed as cell-based. The conditions noted are these: VCaP cells. The method, then: The VCaP cell proliferation activity was determined by CellTiter-Glo Luminescent Cell Viability Assay (Promega, Madison, WI). The cells were inoculated on a 96-well plate in their respective culture mediums, and incubated in an incubator with 5% CO2 at 37° C. After incubation overnight, serial dilutions of the compound were prepared, and added into the 96-well plate. A CellTiter-Glo reagent (volume equal to the volume of the cell culture medium present in each well) was added (e.g., 100 μL of the reagent was added into 100 μL of the cell culture medium in the 96-well plate). The contents were mixed on an orbital shaker for 2 min to induce the cell lysis. The cells in the 96-well plate were incubated at room temperature for 10 min, to stabilize the luminescent signal. Luminescence was recorded: the luminescent signal for each well was acquired using an Infinite M1000 Pro plate reader (Tecan, Zurich, Switzerland), and the data was analyzed using GraphPad Prism software (GraphPad Software Inc, La Jolla, CA).
For orientation: ATP-based viability assays read luminescence as a measure of living cells.

Assay [2] concerns the target CDK12 (Homo sapiens (Human), UniProt Q9NYV4). Briefly: LANCE Ultra kinase assay, CDK12. In kind it is biochemical. The conditions noted are these: 30 nM enzyme, 60 min pre-incubation, ULight-4E-BP1 150 nM; read-out: CDK12 IC50. The protocol: (§1) The inhibitory activities of the test compound on the kinases were evaluated by LANCE Ultra assay, which was used for detecting ATP-dependent phosphorylation of a ULight-4E-BP1 (Thr37/Thr46) substrate peptide (150 nM). In short, enzymatic reactions were performed in a reaction buffer (25 mM HEPES (pH 7.5), 10 mM MgCl2, 0.01% BSA, 0.01% Tween 20, and 1 mM DTT). The assay was performed in a 384-well plate (6 μL). A final concentration of an ATP substrate was […], and a final concentration of the ULight-4E-BP1 (Thr37/Thr46) substrate peptide was 150 nM. A final concentration of CDK9, CDK12, or CDK13 was 0.3, 30, or 30 nM, respectively. Pre-incubation of the compound and the enzyme was performed at room temperature for 60 min. The reaction was stopped by adding 10 mM EDTA and 0.15 nM Eu-labeled anti-phospho-eIF4E-binding protein 1 (Thr37/46) antibody in LANCE detection buffer after incubation at room temperature for 15, 60, or 90 min. Time-resolved fluorescence (excitation, 320 nm; emission donor, 615 nm; emission acceptor, 665 nm) was monitored using an EnVision spectrophotometer (PerkinElmer). Readings were computed as (acceptor count/donor count)×1000. IC50 values were derived by fitting a sigmoidal dose-response curve to a plot of assay readouts of inhibitor concentrations. All fittings were computed using program Prism 5.03 (GraphPad Software, San Diego, CA).
Background: In TR-FRET formats the signal depends on donor and acceptor labels being close together.

The target in assay [3] is CDK13 (Homo sapiens (Human), UniProt Q14004). Put plainly: LANCE Ultra kinase assay, CDK13. In kind it is biochemical. Conditions: 30 nM enzyme, 60 min pre-incubation, ULight-4E-BP1 150 nM; read-out: CDK13 IC50. The method, then:
as §1

CDK12, sequence (Q9NYV4 whole entry): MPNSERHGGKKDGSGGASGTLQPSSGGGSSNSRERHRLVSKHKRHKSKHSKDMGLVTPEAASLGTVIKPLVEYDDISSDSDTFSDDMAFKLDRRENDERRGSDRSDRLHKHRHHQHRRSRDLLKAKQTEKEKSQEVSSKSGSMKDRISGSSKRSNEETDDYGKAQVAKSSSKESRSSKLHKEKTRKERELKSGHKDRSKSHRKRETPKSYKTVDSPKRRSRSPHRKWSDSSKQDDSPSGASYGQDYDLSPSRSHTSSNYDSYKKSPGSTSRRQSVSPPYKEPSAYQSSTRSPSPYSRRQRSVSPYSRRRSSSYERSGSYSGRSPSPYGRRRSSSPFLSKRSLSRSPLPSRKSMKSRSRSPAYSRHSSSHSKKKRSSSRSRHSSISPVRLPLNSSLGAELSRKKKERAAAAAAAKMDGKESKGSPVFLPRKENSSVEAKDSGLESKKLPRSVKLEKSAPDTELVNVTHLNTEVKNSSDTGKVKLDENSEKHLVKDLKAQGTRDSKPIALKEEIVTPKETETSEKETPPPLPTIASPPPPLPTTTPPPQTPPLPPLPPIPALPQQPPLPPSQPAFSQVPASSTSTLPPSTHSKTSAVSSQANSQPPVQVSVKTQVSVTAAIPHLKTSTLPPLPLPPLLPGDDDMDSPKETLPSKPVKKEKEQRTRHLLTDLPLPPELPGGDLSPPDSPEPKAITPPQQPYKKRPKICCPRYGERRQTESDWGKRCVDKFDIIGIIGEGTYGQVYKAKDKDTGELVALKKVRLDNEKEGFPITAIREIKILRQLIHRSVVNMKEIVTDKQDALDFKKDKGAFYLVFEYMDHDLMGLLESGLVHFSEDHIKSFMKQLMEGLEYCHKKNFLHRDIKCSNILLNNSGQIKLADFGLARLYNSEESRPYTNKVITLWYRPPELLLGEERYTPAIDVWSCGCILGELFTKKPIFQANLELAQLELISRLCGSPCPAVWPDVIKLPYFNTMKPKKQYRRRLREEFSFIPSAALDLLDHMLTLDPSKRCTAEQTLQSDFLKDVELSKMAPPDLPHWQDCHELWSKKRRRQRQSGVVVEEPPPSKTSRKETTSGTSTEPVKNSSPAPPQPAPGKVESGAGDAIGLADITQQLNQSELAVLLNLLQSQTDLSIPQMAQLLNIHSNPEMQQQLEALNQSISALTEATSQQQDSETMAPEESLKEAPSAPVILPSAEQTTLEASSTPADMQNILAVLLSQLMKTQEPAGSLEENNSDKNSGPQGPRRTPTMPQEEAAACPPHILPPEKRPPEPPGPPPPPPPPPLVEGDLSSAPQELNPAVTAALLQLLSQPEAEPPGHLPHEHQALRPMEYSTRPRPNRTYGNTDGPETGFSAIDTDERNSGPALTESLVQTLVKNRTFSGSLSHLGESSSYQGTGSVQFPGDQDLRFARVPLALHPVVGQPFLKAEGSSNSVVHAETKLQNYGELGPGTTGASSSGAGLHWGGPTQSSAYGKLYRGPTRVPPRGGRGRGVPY
CDK12, sequence (O75909 whole entry partner): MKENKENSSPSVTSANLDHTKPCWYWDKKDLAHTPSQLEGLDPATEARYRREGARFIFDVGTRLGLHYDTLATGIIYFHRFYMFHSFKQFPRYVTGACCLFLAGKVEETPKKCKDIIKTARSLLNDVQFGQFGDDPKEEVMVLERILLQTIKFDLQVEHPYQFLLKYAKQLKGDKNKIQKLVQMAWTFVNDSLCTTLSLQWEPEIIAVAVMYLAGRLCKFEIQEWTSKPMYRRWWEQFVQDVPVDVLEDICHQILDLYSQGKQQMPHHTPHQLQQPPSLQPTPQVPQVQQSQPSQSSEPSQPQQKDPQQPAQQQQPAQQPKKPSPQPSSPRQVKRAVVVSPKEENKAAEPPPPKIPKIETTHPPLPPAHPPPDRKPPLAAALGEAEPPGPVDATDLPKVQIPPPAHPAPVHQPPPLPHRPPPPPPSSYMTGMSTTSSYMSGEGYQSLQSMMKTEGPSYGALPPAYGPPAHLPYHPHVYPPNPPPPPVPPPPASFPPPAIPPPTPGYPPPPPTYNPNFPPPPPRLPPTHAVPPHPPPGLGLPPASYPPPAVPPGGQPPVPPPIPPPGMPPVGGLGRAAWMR
CDK13, sequence (Q14004 whole entry, looked up): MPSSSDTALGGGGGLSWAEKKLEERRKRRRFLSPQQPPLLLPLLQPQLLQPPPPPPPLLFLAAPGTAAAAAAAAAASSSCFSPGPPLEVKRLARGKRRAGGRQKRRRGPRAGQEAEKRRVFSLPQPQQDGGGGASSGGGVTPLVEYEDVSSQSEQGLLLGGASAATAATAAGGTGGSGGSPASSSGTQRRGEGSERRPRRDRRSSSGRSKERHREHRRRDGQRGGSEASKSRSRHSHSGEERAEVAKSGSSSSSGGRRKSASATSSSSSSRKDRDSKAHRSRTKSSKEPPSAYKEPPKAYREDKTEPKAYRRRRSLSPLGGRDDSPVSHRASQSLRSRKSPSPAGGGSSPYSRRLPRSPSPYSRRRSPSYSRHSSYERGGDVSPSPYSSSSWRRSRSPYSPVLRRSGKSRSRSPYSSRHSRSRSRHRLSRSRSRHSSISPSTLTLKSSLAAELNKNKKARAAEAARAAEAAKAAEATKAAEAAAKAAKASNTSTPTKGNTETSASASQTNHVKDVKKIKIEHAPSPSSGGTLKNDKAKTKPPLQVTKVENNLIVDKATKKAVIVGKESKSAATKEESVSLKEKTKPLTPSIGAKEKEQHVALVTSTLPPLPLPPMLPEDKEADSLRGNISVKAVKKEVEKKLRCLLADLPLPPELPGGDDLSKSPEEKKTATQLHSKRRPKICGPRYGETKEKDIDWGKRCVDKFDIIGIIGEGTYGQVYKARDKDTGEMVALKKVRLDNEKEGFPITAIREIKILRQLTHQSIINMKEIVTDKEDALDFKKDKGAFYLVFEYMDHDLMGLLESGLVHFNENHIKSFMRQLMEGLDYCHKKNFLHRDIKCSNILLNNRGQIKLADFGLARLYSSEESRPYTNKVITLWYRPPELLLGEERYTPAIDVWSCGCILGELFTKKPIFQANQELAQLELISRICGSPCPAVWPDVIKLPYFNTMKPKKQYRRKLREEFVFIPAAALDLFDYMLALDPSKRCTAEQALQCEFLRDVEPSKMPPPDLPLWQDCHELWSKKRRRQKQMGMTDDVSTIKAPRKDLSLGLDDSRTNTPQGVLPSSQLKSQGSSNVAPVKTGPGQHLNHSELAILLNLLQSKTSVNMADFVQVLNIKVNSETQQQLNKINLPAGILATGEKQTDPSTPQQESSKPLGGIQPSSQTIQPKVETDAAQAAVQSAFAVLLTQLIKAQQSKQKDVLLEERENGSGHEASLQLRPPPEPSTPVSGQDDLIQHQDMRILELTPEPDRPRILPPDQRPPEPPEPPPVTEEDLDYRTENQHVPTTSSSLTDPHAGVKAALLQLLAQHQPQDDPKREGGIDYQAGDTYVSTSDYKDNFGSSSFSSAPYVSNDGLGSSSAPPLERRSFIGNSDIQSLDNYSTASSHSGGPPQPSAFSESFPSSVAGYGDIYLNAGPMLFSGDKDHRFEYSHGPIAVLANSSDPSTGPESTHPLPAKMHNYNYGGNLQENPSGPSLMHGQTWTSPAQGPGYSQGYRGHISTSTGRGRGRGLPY
CDK13, sequence (O75909 whole entry partner, looked up): as the sequence (O75909 whole entry partner) above

`CN(C)C/C=C/C(=O)Nc1cc(N(C(=O)NCc2ccccc2)[C@H]2CC[C@H](Nc3ccc(C#N)cn3)CC2)ccc1-c1ccc(=O)n(C)c1` [YJZ5078] yielded an IC50 in assay [1] (Homo sapiens) of 50 to 500 nM.
Still for that read-out and setting: for `C=CC(=O)Nc1cc(N(C(=O)C(=O)NCC(F)(F)F)[C@H]2CC[C@H](Nc3ccc(C#N)cn3)CC2)ccc1N1CCN(C)[C@@H](C)C1` [YJZ8104, N1-(3-acrylamido-4-((S)-3,4-dimethylpiperazin-1-yl)phenyl)-N1-((1r,4S)-4-((5-cyanopyridin-2-yl)amino)cyclohexyl)-N2-(2,2,2-trifluoroethyl)oxalamide] the value was 15 to 50 nM.
In the case of `C=CC(=O)Nc1cc(N(C(=O)NCc2ccccc2)[C@H]2CC[C@H](Nc3ccc(C#N)cn3)CC2)cc(F)c1N1CCN(C)[C@@H](C)C1` [YJZ8070], the values for the IC50 in assay [1], in assay [2] and in assay [3] were under 15 nM, 50 to 500 nM and 15 to 50 nM, respectively.
On to `C=CC(=O)Nc1cc(N(C(=O)NCc2ccccc2)[C@H]2CC[C@H](Nc3ccc(C#N)cn3)CC2)ccc1N1CCN(C)[C@@H](C)C1` [YJZ6093], for which the values for the IC50 in assay [1] (Homo sapiens), in assay [2] and in assay [3] were under 15 nM, 15 to 50 nM and 15 to 50 nM, respectively.
Regarding `C=CC(=O)Nc1cc(N(C(=O)NCc2ccccc2)[C@H]2CC[C@H](Nc3ncc(C#N)cn3)CC2)ccc1N1CCN(C)[C@@H](C)C1` [YJZ7007], in assay [1] (Homo sapiens), the 50% inhibitory concentration (IC50) was 15 to 50 nM.
Turning to `C=CC(=O)Nc1cc(N(C(=O)NCc2ccccc2)[C@H]2CC[C@H](Nc3ccc(C#N)cn3)CC2)ccc1-c1ccc(=O)n(C)c1` [YJZ5028], the results for the IC50 in assay [1] (Homo sapiens), in assay [2] and in assay [3] were 50 to 500 nM, 15 to 50 nM and under 15 nM, respectively.
For the molecule `C=CC(=O)Nc1cccc(N(C(=O)NCc2ccccc2)[C@H]2CC[C@H](Nc3ccc(C#N)cn3)CC2)c1` [YJZ4156, N-(3-(3-benzyl-1-((1r,4r)-4-((5-cyanopyridin-2-yl)amino)cyclohexyl)ureido)phenyl)acrylamide], the figures for the IC50 in assay [1] (Homo sapiens), in assay [2] and in assay [3] were 50 to 500 nM, over 500 nM and 50 to 500 nM, respectively.
In the case of `C=CC(=O)Nc1cc(N(C(=O)NCc2ccccc2)[C@H]2CC[C@H](Nc3ccc(C#N)cn3)CC2)ccc1N1CCN(C(C)=O)CC1` [YJZ5111, N-(2-(4-acetylpiperazin-1-yl)-5-(3-benzyl-1-((1r,4r)-4-((5-cyanopyridin-2-yl)amino)cyclohexyl)ureido)phenyl)acrylamide], the IC50 in assay [1] (Homo sapiens), in assay [2] and in assay [3] was 15 to 50 nM each time.
For the molecule `C=CC(=O)Nc1cc(N(C(=O)C(=O)NC2CC2)[C@H]2CC[C@H](Nc3ccc(C#N)cn3)CC2)ccc1N1CCN(C)[C@@H](C)C1` [YJZ8095, N1-(3-acrylamido-4-((S)-3,4-dimethylpiperazin-1-yl)phenyl)-N1-((1r,4S)-4-((5-cyanopyridin-2-yl)amino)cyclohexyl)-N2-cyclopropyloxalamide], the IC50 in assay [1] (Homo sapiens) was in the range of 15 to 50 nM.
Same read-out and setting: next, `C=CC(=O)Nc1cc(N(C(=O)C(=O)NCC2CC2)[C@H]2CC[C@H](Nc3ccc(C#N)cn3)CC2)ccc1N1CCN(C)[C@@H](C)C1` [YJZ8103, N1-(3-acrylamido-4-((S)-3,4-dimethylpiperazin-1-yl)phenyl)-N1-((1r,4S)-4-((5-cyanopyridin-2-yl)amino)cyclohexyl)-N2-(cyclopropylmethyl)oxalamide]: 15 to 50 nM; `C=CC(=O)Nc1cc(N2CCN(C)[C@@H](C)C2)cc(N(C(=O)NCc2ccccc2)[C@H]2CC[C@H](Nc3ccc(C#N)cn3)CC2)c1` [YJZ8062]: 15 to 50 nM; `C=CC(=O)Nc1cc(OC)cc(N(C(=O)NCc2ccccc2)[C@H]2CC[C@H](Nc3ccc(C#N)cn3)CC2)c1` [YJZ8058, N-(3-(3-benzyl-1-((1r,4r)-4-((5-cyanopyridin-2-yl)amino)cyclohexyl)ureido)-5-methoxyphenyl)acrylamide]: 50 to 500 nM.
Still for that read-out and setting: next, `C=CC(=O)Nc1cc(N(C(C)=O)[C@H]2CC[C@H](Nc3ccc(C#N)cn3)CC2)ccc1N1CCC(N(C)C)CC1` [YJZ6115, N-(5-(N-((1r,4r)-4-((5-cyanopyridin-2-yl)amino)cyclohexyl)acetamido)-2-(4-(dimethylamino)piperidin-1-yl)phenyl)acrylamide]: over 500 nM; `C=CC(=O)Nc1cc(N(C(=O)C(=O)NCc2cccc(F)c2)[C@H]2CC[C@H](Nc3ccc(C#N)cn3)CC2)ccc1N1CCN(C)[C@@H](C)C1` [YJZ8087, N1-(3-acrylamido-4-((S)-3,4-dimethylpiperazin-1-yl)phenyl)-N1-((1r,4S)-4-((5-cyanopyridin-2-yl)amino)cyclohexyl)-N2-(3-fluorobenzyl)oxalamide]: 15 to 50 nM; `C=CC(=O)Nc1cc(N(C(=O)C(=O)NCc2cccc(F)c2F)[C@H]2CC[C@H](Nc3ccc(C#N)cn3)CC2)ccc1N1CCN(C)[C@@H](C)C1` [YJZ8107, N1-(3-acrylamido-4-((S)-3,4-dimethylpiperazin-1-yl)phenyl)-N1-((1r,4S)-4-((5-cyanopyridin-2-yl)amino)cyclohexyl)-N2-(2,3-difluorobenzyl)oxalamide]: 15 to 50 nM.
On the same count and under the same terms, next, `C=CC(=O)Nc1cc(N(C(=O)C(=O)NCc2ccc(F)cc2)[C@H]2CC[C@H](Nc3ccc(C#N)cn3)CC2)ccc1N1CCN(C)[C@@H](C)C1` [YJZ8093, N1-(3-acrylamido-4-((S)-3,4-dimethylpiperazin-1-yl)phenyl)-N1-((1r,4S)-4-((5-cyanopyridin-2-yl)amino)cyclohexyl)-N2-(4-fluorobenzyl)oxalamide]: 15 to 50 nM.
Turning to `C=CC(=O)Nc1cc(N(C(=O)NCc2ccccc2)[C@H]2CC[C@H](Nc3ccc(C#N)cn3)CC2)ccc1N1CCC(N(C)C)C1` (some centres unmarked) [YJZ6082], the IC50 in assay [1] (Homo sapiens) was 50 to 500 nM; in assay [2], over 500 nM; in assay [3] it was 50 to 500 nM.
In the case of `C=CC(=O)Nc1cc(Br)cc(N(C(=O)NCc2ccccc2)[C@H]2CC[C@H](Nc3ccc(C#N)cn3)CC2)c1` [YJZ8053, N-(3-(3-benzyl-1-((1r,4r)-4-((5-cyanopyridin-2-yl)amino)cyclohexyl)ureido)-5-bromophenyl)acrylamide], in assay [1] (Homo sapiens), the IC50 was 50 to 500 nM.
The same measure, in the same setting: for `C=CC(=O)Nc1cc(N(C(=O)C(=O)NCc2cc(F)cc(F)c2)[C@H]2CC[C@H](Nc3ccc(C#N)cn3)CC2)ccc1N1CCN(C)[C@@H](C)C1` [YJZ8102, N1-(3-acrylamido-4-((S)-3,4-dimethylpiperazin-1-yl)phenyl)-N1-((1r,4S)-4-((5-cyanopyridin-2-yl)amino)cyclohexyl)-N2-(3,5-difluorobenzyl)oxalamide] the value was 15 to 50 nM.
In assay [1] (Homo sapiens), `C=CC(=O)Nc1cc(N([C@H]2CC[C@H](Nc3ccc(C#N)cn3)CC2)S(C)(=O)=O)ccc1N1CCC(N(C)C)CC1` [YJZ6131, N-(5-(N-((1r,4r)-4-((5-cyanopyridin-2-yl)amino)cyclohexyl)methylsulfonamido)-2-(4-(dimethylamino)piperidin-1-yl)phenyl)acrylamide] gave a 50% inhibitory concentration (IC50) of over 500 nM.
On the same count and under the same terms, next, `C=CC(=O)Nc1cc(N([C@H]2CC[C@H](Nc3ccc(C#N)cn3)CC2)S(=O)(=O)Cc2ccccc2)ccc1N1CCC(N(C)C)CC1` [YJZ6136, N-(5-((N-((1r,4r)-4-((5-cyanopyridin-2-yl)amino)cyclohexyl)-1-phenylmethyl)sulfonamido)-2-(4-(dimethylamino)piperidin-1-yl)phenyl)acrylamide]: 50 to 500 nM; `C=CC(=O)Nc1cc(N(C(=O)C(=O)N[C@H](C)c2ccccc2)[C@H]2CC[C@H](Nc3ccc(C#N)cn3)CC2)ccc1N1CCN(C)[C@@H](C)C1` [YJZ8105, N1-(3-acrylamido-4-((S)-3,4-dimethylpiperazin-1-yl)phenyl)-N1-((1r,4R)-4-((5-cyanopyridin-2-yl)amino)cyclohexyl)-N2-((R)-1-phenylethyl)oxalamide]: 15 to 50 nM.
Consider `C=CC(=O)Nc1cc(N(C(=O)C(=O)NCc2ccc(F)c(F)c2)[C@H]2CC[C@H](Nc3ccc(C#N)cn3)CC2)ccc1N1CCN(C)[C@@H](C)C1` [YJZ8101, N1-(3-acrylamido-4-((S)-3,4-dimethylpiperazin-1-yl)phenyl)-N1-((1r,4S)-4-((5-cyanopyridin-2-yl)amino)cyclohexyl)-N2-(3,4-difluorobenzyl)oxalamide], for which the IC50 in assay [1] (Homo sapiens) is under 15 nM.

By IC50 is commonly meant the concentration that inhibits the measured activity by half.
